{
  "source": "the kinase profiling compilation of Christmann-Franck et al. (2016)",
  "assay_in_all_cases": "KINOMEscan competition binding",
  "settings_in_all_cases": "compound 2.0 µM",
  "key": {"[1]": {"test_system": "PIK3CA (human), P42336 [M1043I]"}, "PIP5K1A (human)": {"biological_target": "PIP5K1A (human) (UniProt Q99755)"}, "PRKCI (human)": {"biological_target": "PRKCI (human) (UniProt P41743)"}, "MAP2K7 (human)": {"biological_target": "MAP2K7 (human) (UniProt O14733)"}, "PLK3 (human)": {"biological_target": "PLK3 (human) (UniProt Q9H4B4)"}, "GSK3B (human)": {"biological_target": "GSK3B (human) (UniProt P49841)", "sequence (P49841 whole entry, looked up)": "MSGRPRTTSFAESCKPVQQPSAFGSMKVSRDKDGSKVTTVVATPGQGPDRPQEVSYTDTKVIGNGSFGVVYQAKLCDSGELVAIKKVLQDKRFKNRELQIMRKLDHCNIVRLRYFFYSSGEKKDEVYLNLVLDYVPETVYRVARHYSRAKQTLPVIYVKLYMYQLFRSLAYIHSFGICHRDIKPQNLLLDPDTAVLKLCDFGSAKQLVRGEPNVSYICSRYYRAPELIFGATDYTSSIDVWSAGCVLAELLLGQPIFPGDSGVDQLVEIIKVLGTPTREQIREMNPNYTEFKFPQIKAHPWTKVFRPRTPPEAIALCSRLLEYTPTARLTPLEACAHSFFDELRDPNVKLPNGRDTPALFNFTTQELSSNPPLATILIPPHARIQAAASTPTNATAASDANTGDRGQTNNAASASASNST"}, "MTOR (human)": {"biological_target": "MTOR (human) (UniProt P42345)"}, "CAMKK2 (human)": {"biological_target": "CAMKK2 (human) (UniProt Q96RR4)"}, "DDR1 (human)": {"biological_target": "DDR1 (human) (UniProt Q08345)"}, "[2]": {"test_system": "PIK3CA (human), P42336 [E545K]"}, "PRKCD (human)": {"biological_target": "PRKCD (human) (UniProt Q05655)"}, "KDR (human)": {"biological_target": "KDR (human) (UniProt P35968)"}, "TLK1 (human)": {"biological_target": "TLK1 (human) (UniProt Q9UKI8)"}, "IRAK3 (human)": {"biological_target": "IRAK3 (human) (UniProt Q9Y616)"}, "RPS6KA1 KD1 (human)": {"biological_target": "RPS6KA1 KD1 (human) (UniProt Q15418)"}, "MAK (human)": {"biological_target": "MAK (human) (UniProt P20794)", "sequence (P20794 whole entry, looked up)": "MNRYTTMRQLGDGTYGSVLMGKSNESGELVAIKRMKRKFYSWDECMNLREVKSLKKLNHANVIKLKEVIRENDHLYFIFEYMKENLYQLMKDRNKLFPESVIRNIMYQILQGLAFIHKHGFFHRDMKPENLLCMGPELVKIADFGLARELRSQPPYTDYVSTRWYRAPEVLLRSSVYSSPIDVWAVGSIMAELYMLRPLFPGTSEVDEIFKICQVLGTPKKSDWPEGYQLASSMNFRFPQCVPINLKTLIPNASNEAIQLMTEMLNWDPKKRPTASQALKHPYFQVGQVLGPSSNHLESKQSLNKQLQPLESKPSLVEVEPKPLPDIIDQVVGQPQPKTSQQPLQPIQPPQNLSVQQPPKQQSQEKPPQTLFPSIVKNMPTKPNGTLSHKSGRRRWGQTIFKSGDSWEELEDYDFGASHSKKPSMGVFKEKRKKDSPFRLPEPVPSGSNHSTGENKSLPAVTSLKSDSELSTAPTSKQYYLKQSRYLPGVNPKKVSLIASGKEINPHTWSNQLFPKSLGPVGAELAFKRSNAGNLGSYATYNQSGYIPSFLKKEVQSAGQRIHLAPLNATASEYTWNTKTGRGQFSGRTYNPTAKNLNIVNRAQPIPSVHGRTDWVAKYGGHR"}, "PDGFRB (human)": {"biological_target": "PDGFRB (human) (UniProt P09619)"}, "NEK5 (human)": {"biological_target": "NEK5 (human) (UniProt Q6P3R8)", "sequence (Q6P3R8 whole entry, looked up)": "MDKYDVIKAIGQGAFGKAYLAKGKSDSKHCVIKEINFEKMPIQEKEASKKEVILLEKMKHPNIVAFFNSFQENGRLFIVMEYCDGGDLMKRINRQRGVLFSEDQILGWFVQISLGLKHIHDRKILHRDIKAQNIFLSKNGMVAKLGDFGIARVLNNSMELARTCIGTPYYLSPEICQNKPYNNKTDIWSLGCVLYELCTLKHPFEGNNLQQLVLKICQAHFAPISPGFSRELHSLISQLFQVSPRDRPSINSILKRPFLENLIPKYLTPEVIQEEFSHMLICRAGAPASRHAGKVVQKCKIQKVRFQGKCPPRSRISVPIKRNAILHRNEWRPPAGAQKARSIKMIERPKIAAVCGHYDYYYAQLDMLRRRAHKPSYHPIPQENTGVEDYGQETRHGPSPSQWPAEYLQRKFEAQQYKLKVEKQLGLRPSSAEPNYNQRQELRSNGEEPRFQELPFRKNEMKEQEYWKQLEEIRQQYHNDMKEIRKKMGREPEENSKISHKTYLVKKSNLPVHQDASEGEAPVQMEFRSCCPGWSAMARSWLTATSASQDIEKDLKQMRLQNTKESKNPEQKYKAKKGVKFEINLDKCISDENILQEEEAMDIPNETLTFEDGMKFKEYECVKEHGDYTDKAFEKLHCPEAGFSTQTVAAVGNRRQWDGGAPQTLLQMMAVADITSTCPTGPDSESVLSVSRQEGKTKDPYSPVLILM"}, "CPK1 (P.falciparum)": {"test_system": "CPK1 (P.falciparum)"}, "MARK4 (human)": {"biological_target": "MARK4 (human) (UniProt Q96L34)", "sequence (Q96L34 whole entry, looked up)": "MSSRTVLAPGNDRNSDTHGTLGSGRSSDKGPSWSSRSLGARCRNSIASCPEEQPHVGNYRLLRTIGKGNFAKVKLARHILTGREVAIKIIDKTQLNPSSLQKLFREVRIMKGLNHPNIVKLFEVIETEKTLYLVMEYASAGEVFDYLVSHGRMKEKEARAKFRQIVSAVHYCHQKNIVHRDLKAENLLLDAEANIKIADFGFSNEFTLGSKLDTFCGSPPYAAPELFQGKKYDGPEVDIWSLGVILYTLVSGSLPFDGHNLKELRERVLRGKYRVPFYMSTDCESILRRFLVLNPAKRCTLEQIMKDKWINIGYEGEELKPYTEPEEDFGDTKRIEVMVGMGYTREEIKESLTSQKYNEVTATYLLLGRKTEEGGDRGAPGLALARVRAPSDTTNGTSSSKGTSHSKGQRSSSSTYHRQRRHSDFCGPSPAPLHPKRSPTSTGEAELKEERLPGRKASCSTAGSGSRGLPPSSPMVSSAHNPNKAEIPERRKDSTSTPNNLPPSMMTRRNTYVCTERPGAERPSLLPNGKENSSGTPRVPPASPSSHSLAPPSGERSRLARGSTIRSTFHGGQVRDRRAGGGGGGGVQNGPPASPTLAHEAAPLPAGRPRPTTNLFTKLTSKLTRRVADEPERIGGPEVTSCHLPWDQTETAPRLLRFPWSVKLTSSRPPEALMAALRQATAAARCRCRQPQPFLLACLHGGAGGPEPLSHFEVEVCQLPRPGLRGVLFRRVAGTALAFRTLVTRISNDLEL"}, "LIMK2 (human)": {"biological_target": "LIMK2 (human) (UniProt P53671)"}, "EPHB4 (human)": {"biological_target": "EPHB4 (human) (UniProt P54760)"}, "PRKAA1 (human)": {"biological_target": "PRKAA1 (human) (UniProt Q13131)"}, "CDK8 (human)": {"biological_target": "CDK8 (human) (UniProt P49336)"}, "STK17A (human)": {"biological_target": "STK17A (human) (UniProt Q9UEE5)"}, "MAP4K3 (human)": {"biological_target": "MAP4K3 (human) (UniProt Q8IVH8)"}, "MKNK1 (human)": {"biological_target": "MKNK1 (human) (UniProt Q9BUB5)"}, "[3]": {"test_system": "KIT (human), P10721 [V559D/T670I]"}, "SRPK3 (human)": {"biological_target": "SRPK3 (human) (UniProt Q9UPE1)"}, "[4]": {"biological_target": "JAK2 JH1 catalytic (human) (UniProt O60674)"}, "STK24 (human)": {"biological_target": "STK24 (human) (UniProt Q9Y6E0)", "sequence (Q9Y6E0 whole entry, looked up)": "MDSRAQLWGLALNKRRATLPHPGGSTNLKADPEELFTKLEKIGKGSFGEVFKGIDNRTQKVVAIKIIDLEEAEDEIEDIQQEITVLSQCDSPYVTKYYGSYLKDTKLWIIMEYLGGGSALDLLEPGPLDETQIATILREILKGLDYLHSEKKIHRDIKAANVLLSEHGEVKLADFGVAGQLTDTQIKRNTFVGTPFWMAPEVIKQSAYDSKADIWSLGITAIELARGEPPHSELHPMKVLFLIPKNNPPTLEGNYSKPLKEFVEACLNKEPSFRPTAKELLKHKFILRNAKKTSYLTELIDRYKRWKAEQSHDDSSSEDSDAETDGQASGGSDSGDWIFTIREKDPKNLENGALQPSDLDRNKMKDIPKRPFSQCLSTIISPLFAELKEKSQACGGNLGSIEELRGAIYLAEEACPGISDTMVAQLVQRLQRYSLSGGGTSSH"}, "PRKX (human)": {"biological_target": "PRKX (human) (UniProt P51817)", "sequence (P51817 whole entry, looked up)": "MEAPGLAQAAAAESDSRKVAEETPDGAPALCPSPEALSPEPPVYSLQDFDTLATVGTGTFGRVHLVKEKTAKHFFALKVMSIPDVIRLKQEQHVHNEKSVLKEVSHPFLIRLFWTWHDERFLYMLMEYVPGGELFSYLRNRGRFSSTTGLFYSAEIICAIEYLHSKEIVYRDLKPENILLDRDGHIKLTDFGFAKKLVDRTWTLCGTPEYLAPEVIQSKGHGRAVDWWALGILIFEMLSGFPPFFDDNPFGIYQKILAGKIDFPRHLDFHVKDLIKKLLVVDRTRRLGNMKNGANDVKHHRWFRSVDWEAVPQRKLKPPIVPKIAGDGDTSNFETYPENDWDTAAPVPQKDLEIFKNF"}, "MAP4K1 (human)": {"biological_target": "MAP4K1 (human) (UniProt Q92918)", "sequence (Q92918 whole entry, looked up)": "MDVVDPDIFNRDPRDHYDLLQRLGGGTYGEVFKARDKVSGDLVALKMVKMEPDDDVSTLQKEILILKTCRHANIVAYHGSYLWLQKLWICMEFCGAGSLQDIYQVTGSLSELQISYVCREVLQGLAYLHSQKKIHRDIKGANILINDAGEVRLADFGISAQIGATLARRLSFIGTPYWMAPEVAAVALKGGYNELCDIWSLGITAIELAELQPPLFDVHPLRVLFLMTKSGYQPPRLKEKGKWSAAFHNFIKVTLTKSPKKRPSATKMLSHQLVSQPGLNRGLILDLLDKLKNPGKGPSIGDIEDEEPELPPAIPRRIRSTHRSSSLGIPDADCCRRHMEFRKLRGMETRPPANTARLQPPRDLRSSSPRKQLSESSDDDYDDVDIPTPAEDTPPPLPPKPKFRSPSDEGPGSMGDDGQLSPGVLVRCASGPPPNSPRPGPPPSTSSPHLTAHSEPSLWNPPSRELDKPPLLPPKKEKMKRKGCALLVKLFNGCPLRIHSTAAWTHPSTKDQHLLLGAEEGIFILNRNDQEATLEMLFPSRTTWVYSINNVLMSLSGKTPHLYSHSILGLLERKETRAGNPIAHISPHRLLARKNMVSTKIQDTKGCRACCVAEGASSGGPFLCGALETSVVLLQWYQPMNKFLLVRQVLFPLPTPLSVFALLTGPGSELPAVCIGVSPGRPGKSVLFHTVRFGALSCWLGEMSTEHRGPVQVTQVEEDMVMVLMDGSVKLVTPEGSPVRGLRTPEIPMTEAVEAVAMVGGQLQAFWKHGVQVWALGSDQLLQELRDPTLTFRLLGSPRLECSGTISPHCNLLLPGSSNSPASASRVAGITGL"}, "EPHA1 (human)": {"biological_target": "EPHA1 (human) (UniProt P21709)"}, "FGFR3 (human)": {"biological_target": "FGFR3 (human) (UniProt P22607)"}, "PKN1 (human)": {"biological_target": "PKN1 (human) (UniProt Q16512)"}, "PRKAA2 (human)": {"biological_target": "PRKAA2 (human) (UniProt P54646)", "sequence (P54646 whole entry, looked up)": "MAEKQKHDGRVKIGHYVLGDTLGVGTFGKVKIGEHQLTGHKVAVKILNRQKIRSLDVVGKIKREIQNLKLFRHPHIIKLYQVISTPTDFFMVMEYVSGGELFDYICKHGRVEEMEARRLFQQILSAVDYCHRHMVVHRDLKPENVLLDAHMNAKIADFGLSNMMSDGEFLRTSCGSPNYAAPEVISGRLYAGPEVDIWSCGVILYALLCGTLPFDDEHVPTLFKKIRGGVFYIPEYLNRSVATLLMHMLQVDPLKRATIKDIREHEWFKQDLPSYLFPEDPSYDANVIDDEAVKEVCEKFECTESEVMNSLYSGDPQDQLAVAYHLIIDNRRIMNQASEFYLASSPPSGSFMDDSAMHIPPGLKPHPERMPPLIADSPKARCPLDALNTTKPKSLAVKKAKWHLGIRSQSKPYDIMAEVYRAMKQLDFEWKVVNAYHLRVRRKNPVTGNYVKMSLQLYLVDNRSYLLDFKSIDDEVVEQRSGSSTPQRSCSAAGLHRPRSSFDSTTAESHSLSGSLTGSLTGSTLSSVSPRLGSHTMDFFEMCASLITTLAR"}, "[5]": {"test_system": "EGFR (human), P00533 [P753S; 747-752 del]"}, "RIOK3 (human)": {"biological_target": "RIOK3 (human) (UniProt O14730)"}, "[6]": {"test_system": "EGFR (human), P00533 [L858R]"}, "RIPK4 (human)": {"biological_target": "RIPK4 (human) (UniProt P57078)"}, "GAK (human)": {"biological_target": "GAK (human) (UniProt O14976)"}},
  "data": [
    {"compound": "N#Cc1ccc2ncnc(NCCc3ccc4ccccc4c3)c2c1", "values": [
      {"measurement": "kinase still bound, per cent of control", "setting": "[1]", "result": 93, "unit": "%"},
      {"measurement": "kinase still bound, per cent of control", "setting": "PIP5K1A (human)", "result": 100, "unit": "%"},
      {"measurement": "kinase still bound, per cent of control", "setting": "PRKCI (human)", "result": 100, "unit": "%"},
      {"measurement": "kinase still bound, per cent of control", "setting": "MAP2K7 (human)", "result": 94, "unit": "%"},
      {"measurement": "kinase still bound, per cent of control", "setting": "PLK3 (human)", "result": 80, "unit": "%"},
      {"measurement": "kinase still bound, per cent of control", "setting": "GSK3B (human)", "result": 89, "unit": "%"},
      {"measurement": "kinase still bound, per cent of control", "setting": "MTOR (human)", "result": 80, "unit": "%"},
      {"measurement": "kinase still bound, per cent of control", "setting": "CAMKK2 (human)", "result": 100, "unit": "%"},
      {"measurement": "kinase still bound, per cent of control", "setting": "DDR1 (human)", "result": 96, "unit": "%"},
      {"measurement": "kinase still bound, per cent of control", "setting": "[2]", "result": 94, "unit": "%"},
      {"measurement": "kinase still bound, per cent of control", "setting": "PRKCD (human)", "result": 91, "unit": "%"},
      {"measurement": "kinase still bound, per cent of control", "setting": "KDR (human)", "result": 86, "unit": "%"},
      {"measurement": "kinase still bound, per cent of control", "setting": "TLK1 (human)", "result": 92, "unit": "%"},
      {"measurement": "kinase still bound, per cent of control", "setting": "IRAK3 (human)", "result": 82, "unit": "%"},
      {"measurement": "kinase still bound, per cent of control", "setting": "RPS6KA1 KD1 (human)", "result": 81, "unit": "%"},
      {"measurement": "kinase still bound, per cent of control", "setting": "MAK (human)", "result": 99, "unit": "%"},
      {"measurement": "kinase still bound, per cent of control", "setting": "PDGFRB (human)", "result": 100, "unit": "%"},
      {"measurement": "kinase still bound, per cent of control", "setting": "NEK5 (human)", "result": 70, "unit": "%"},
      {"measurement": "kinase still bound, per cent of control", "setting": "CPK1 (P.falciparum)", "result": 95, "unit": "%"},
      {"measurement": "kinase still bound, per cent of control", "setting": "MARK4 (human)", "result": 85, "unit": "%"},
      {"measurement": "kinase still bound, per cent of control", "setting": "LIMK2 (human)", "result": 94, "unit": "%"},
      {"measurement": "kinase still bound, per cent of control", "setting": "EPHB4 (human)", "result": 100, "unit": "%"},
      {"measurement": "kinase still bound, per cent of control", "setting": "PRKAA1 (human)", "result": 89, "unit": "%"},
      {"measurement": "kinase still bound, per cent of control", "setting": "CDK8 (human)", "result": 8.7, "unit": "%"},
      {"measurement": "kinase still bound, per cent of control", "setting": "STK17A (human)", "result": 100, "unit": "%"},
      {"measurement": "kinase still bound, per cent of control", "setting": "MAP4K3 (human)", "result": 100, "unit": "%"},
      {"measurement": "kinase still bound, per cent of control", "setting": "MKNK1 (human)", "result": 64, "unit": "%"},
      {"measurement": "kinase still bound, per cent of control", "setting": "[3]", "result": 86, "unit": "%"},
      {"measurement": "kinase still bound, per cent of control", "setting": "SRPK3 (human)", "result": 86, "unit": "%"},
      {"measurement": "kinase still bound, per cent of control", "setting": "[4]", "result": 100, "unit": "%"},
      {"measurement": "kinase still bound, per cent of control", "setting": "STK24 (human)", "result": 92, "unit": "%"},
      {"measurement": "kinase still bound, per cent of control", "setting": "PRKX (human)", "result": 93, "unit": "%"},
      {"measurement": "kinase still bound, per cent of control", "setting": "MAP4K1 (human)", "result": 81, "unit": "%"},
      {"measurement": "kinase still bound, per cent of control", "setting": "EPHA1 (human)", "result": 89, "unit": "%"},
      {"measurement": "kinase still bound, per cent of control", "setting": "FGFR3 (human)", "result": 100, "unit": "%"},
      {"measurement": "kinase still bound, per cent of control", "setting": "PKN1 (human)", "result": 100, "unit": "%"},
      {"measurement": "kinase still bound, per cent of control", "setting": "PRKAA2 (human)", "result": 80, "unit": "%"},
      {"measurement": "kinase still bound, per cent of control", "setting": "[5]", "result": 89, "unit": "%"},
      {"measurement": "kinase still bound, per cent of control", "setting": "RIOK3 (human)", "result": 100, "unit": "%"},
      {"measurement": "kinase still bound, per cent of control", "setting": "[6]", "result": 96, "unit": "%"},
      {"measurement": "kinase still bound, per cent of control", "setting": "RIPK4 (human)", "result": 100, "unit": "%"},
      {"measurement": "kinase still bound, per cent of control", "setting": "GAK (human)", "result": 100, "unit": "%"}
    ]}
  ]
}
